Measurements from the NIST ThermoML archive (doi:10.1021/acs.jced.8b01146).
Where “and” joins values, the source holds several entries; their conditions need not be identical. Identical values can stand only once.

How the values were obtained:
[1] = xn = mol fraction of the nth substance listed; settings: 100 kPa, Liquid, Vibrating tube method
[2] = excess molar enthalpy (molar enthalpy of mixing); xn = mol fraction of the nth substance listed; settings: 100 kPa, Liquid, Calvet calorimetry

O=C1CCCO1 [γ-butyrolactone] + O
Settings | excess molar enthalpy, [2] | mass density, [1]
288.15 K, x1 = 0.00118 | -0.000825 kcal/mol | 999.977 kg/m3
288.15 K, x1 = 0.001181 | -0.000827 kcal/mol | 999.978 kg/m3
288.15 K, x1 = 0.002358 | -0.00163 kcal/mol | 1000.85 kg/m3
288.15 K, x1 = 0.003533 | -0.0024 kcal/mol | 1001.72 kg/m3
288.15 K, x1 = 0.003534 | -0.0024 kcal/mol | 1001.72 kg/m3
288.15 K, x1 = 0.004705 | -0.00315 kcal/mol | 1002.58 kg/m3
288.15 K, x1 = 0.004706 | -0.00315 kcal/mol | 1002.59 kg/m3
288.15 K, x1 = 0.005874 | -0.00388 kcal/mol | 1003.43 kg/m3
288.15 K, x1 = 0.005876 | -0.00387 kcal/mol | 1003.43 kg/m3
288.15 K, x1 = 0.007042 | -0.00458 kcal/mol | 1004.27 kg/m3
288.15 K, x1 = 0.007044 | -0.00458 kcal/mol | 1004.28 kg/m3
298.15 K, x1 = 0.001179 | -0.000598 kcal/mol | 997.864 kg/m3
298.15 K, x1 = 0.002356 | -0.00117 kcal/mol | 998.672 kg/m3
298.15 K, x1 = 0.00353 | -0.00171 kcal/mol | 999.474 kg/m3
298.15 K, x1 = 0.004701 | -0.00224 kcal/mol | 1000.27 kg/m3
298.15 K, x1 = 0.005869 | -0.00275 kcal/mol | 1001.06 kg/m3
298.15 K, x1 = 0.007036 | -0.00324 kcal/mol | 1001.84 kg/m3
308.15 K, x1 = 0.001179 | -0.000363 kcal/mol and -0.000361 kcal/mol | 994.794 kg/m3 and 994.797 kg/m3
308.15 K, x1 = 0.002356 | -0.0007 kcal/mol and -0.000698 kcal/mol | 995.554 kg/m3 and 995.552 kg/m3
308.15 K, x1 = 0.00353 | -0.00101 kcal/mol | 996.301 kg/m3
308.15 K, x1 = 0.003531 | -0.00101 kcal/mol | 996.302 kg/m3
308.15 K, x1 = 0.004702 | -0.00131 kcal/mol | 997.038 kg/m3
308.15 K, x1 = 0.004703 | -0.0013 kcal/mol | 997.039 kg/m3
308.15 K, x1 = 0.00587 | -0.00158 kcal/mol | 997.774 kg/m3
308.15 K, x1 = 0.005871 | -0.00158 kcal/mol | 997.78 kg/m3
308.15 K, x1 = 0.007038 | -0.00184 kcal/mol | 998.505 kg/m3 and 998.496 kg/m3
318.15 K, x1 = 0.001181 | -0.000116 kcal/mol and -0.000115 kcal/mol | 990.926 kg/m3 and 990.925 kg/m3
318.15 K, x1 = 0.002359 | -0.000209 kcal/mol and -0.000208 kcal/mol | 991.631 kg/m3 and 991.634 kg/m3
318.15 K, x1 = 0.003534 | -0.000283 kcal/mol and -0.000286 kcal/mol | 992.336 kg/m3 and 992.333 kg/m3
318.15 K, x1 = 0.004706 | -0.000346 kcal/mol | 993.03 kg/m3
318.15 K, x1 = 0.004707 | -0.000343 kcal/mol | 993.03 kg/m3
318.15 K, x1 = 0.005875 | -0.00039 kcal/mol | 993.721 kg/m3
318.15 K, x1 = 0.005876 | -0.000386 kcal/mol | 993.713 kg/m3
318.15 K, x1 = 0.007043 | -0.000418 kcal/mol | 994.396 kg/m3
318.15 K, x1 = 0.007044 | -0.000413 kcal/mol | 994.396 kg/m3
